The values below come from patent publication US4990537A, “Anti influenza agent” (priority 1988, dated 1991).

Data set [1] concerns human influenza virus A/WSN. In words: Inhibitory activities against plaque formation of human influenza virus (plaque assay in MDCK cells). Type of data set: cell-based. Conditions: for inhibitory activities against growth of human influenza virus compared with amantadine: in words, versus amantadine.
A further data set is described as follows: in vitro. Conditions: dog, mdck.
Data set [2] has as its system human influenza virus (A/Fukuoka/80). In words: animal or person. Type of data set: in vivo, human influenza virus; embryonated chicken eggs. Particulars: for activities for inhibiting proliferation of human influenza virus compared with amantadine: in words, versus amantadine; for IC50: unidentified influenza virus, 48 h, read-out: Concentration for 50% inhibition against proliferation of virus.

Data set [3] has as its system MDCK cells (dog kidney cells). Conditions: for Cytotoxicity (printed in the inhibition rate column): 100.0 μg/ml, plaque assay, three days; for range of safety compared with amantadine: in words, versus amantadine.
[4] abbreviates: unidentified influenza virus, WSN, MDCK, 72 h, read-out: Inhibition rate (%) of plaque formation.

Regarding `CS(=O)(=O)O.CS(=O)(=O)O.N=C(N)Nc1ccc(C(=O)Oc2ccc3cc(C(=N)N)ccc3c2)cc1` [Compound A, 6-Amidino-2-naphthyl p-guanidinobenzoate dimethanesulfonate], the “inhibitory activities against growth of human influenza virus compared with amantadine” value in data set [1] is reported as “even stronger inhibitory activities against growth of human influenza virus than amantadine”. Moreover, in data set [1] (setting [4]), the inhibition at 1 µg/mL came to 19.9%, the inhibition at 2.5 µg/mL amounted to 27.2%, the inhibition at 5 µg/mL turned out to be 52.1% and the inhibition at 10 µg/mL was determined as 100%. Moreover, in data set [1] (setting [4]), the inhibition at 25 µg/mL was 100% and the inhibition at 50 µg/mL turned out to be 100%. For the same compound, in “in vitro”, the MNTC at 72 h is at least 50 µg/mL. Moreover, in data set [2], the “activities for inhibiting proliferation of human influenza virus compared with amantadine” value is listed as “stronger activities for inhibiting proliferation of human influenza virus” and the IC50 was 0.125 µg/mL. Further, in data set [3], the “Cytotoxicity (printed in the inhibition rate column)” value is recorded as “Cytotoxicity” and the “range of safety compared with amantadine” value is given as “wide range of safety as compared with amantadine”.

Consider `NC12CC3CC(CC(C3)C1)C2` [Amantadine, amantadine, reference compound], for which, in data set [1] (setting [4]), the inhibition at 30 µg/mL was determined as 60.1%. Also, in data set [2], the IC50 is above 100 µg/mL. Besides, in data set [3], the cytotoxicity entry is “cytotoxicity slightly but distinctly” and the “Cytotoxicity (printed in the inhibition rate column)” value is recorded as “Cytotoxicity”.

With `CN(C)C(=O)COC(=O)Cc1ccc(OC(=O)c2ccc(NC(=N)N)cc2)cc1.CS(=O)(=O)O` [Compound B, N,N-dimethylcarbamoylmethyl p-(p-guanidinobenzoyloxy)phenylacetate methanesulfonate], the “inhibitory activities against growth of human influenza virus compared with amantadine” value in data set [1] is reported as “even stronger inhibitory activities against growth of human influenza virus than amantadine”. Besides, in data set [1] (setting [4]), the inhibition at 10 µg/mL came to 29.5%, the inhibition at 20 µg/mL worked out at 51.5%, the inhibition at 40 µg/mL worked out at 80.5% and the inhibition at 50 µg/mL was found to be 88%. Further, the inhibition at 100 µg/mL in data set [1] (setting [4]) amounted to 100%. Besides, the MNTC at 72 h in the data set “in vitro” is at least 1000 µg/mL. Moreover, in data set [2], the “activities for inhibiting proliferation of human influenza virus compared with amantadine” value is listed as “stronger activities for inhibiting proliferation of human influenza virus” and the IC50 stood at 1.25 µg/mL. Besides, the “range of safety compared with amantadine” value in data set [3] is listed as “wide range of safety as compared with amantadine”.

What is called inhibition is the percentage by which the read-out fell short of the control.
